# Results reported in patent US8993585B2, “Cyclic amine substituted pyrimidinediamines as PKC inhibitors” (Rigel Pharmaceuticals, Inc., priority 2007, dated 2015).
# Tested on: Human primary T cells
# Experiment: IL-2 ELISA, Human Primary T Cell, Anti-CD3+CD28+ (Example 3)
# Type: cell-based
# Details: anti-CD3+CD28 stimulation
# Protocol: Human primary T cell isolation and culture: Human primary T cells were prepared as follows. […] The cells at the serum:ficoll interface were recovered and washed twice with 5 volumes of PBS. […] The primary T-cells were then washed twice with PBS to remove the IL-2.
# Primary T cell stimulation and IL2 ELISA: Human primary T cells (100,000 cells per well) were pre-incubated with or without test compound in Yssel's medium for 1 hr at 37° C. Cells were then stimulated by transferring them to round-bottom 96-well plates pre-coated with 1 ug/ml αCD3 and 5 μg/ml αCD28. For counter assay, cells were instead stimulated by adding 8× stock solutions of PMA and ionomycin in Yssels (for final concentrations of 0.5 ng/ml PMA and 0.1 uM ionomycin, both from Calbiochem).
SMILES,IC50 (24 hours),"IC50 (Homo sapiens, T-cell, 24 h)"
CN1C(C)(C)CC(Nc2nc(Nc3ccc(N4CCN(S(C)(=O)=O)CC4)c(C(F)(F)F)c3)ncc2C(N)=O)CC1(C)C [Compound I-90],2860 nM,
CN1C(C)(C)CC(Nc2nc(Nc3ccc(N4CCN(S(C)(=O)=O)CC4)c(Cl)c3)ncc2C(N)=O)CC1(C)C [Compound I-91],3910 nM,
CN1CCN(c2ccc(Nc3ncc(C(N)=O)c(NC4CC(C)(C)N(C)C(C)(C)C4)n3)cc2Cl)CC1 [Compound I-98],1070 nM,
CN1C(C)(C)CC(Nc2nc(Nc3ccc(-c4ccncc4)c(Cl)c3)ncc2F)CC1(C)C [Compound I-99],304 nM,
CN1C(C)(C)CC(Nc2nc(Nc3cccc(-c4cccnc4)c3)ncc2F)CC1(C)C [Compound I-107],750 nM,
CN1C(C)(C)CC(Nc2nc(Nc3ccc(Br)cc3)ncc2F)CC1(C)C [Compound I-108],1150 nM,
CN1C(C)(C)CC(Nc2nc(Nc3ccc(Br)c(F)c3)ncc2F)CC1(C)C [Compound I-110],491 nM,
Cc1cc(Nc2ncc(F)c(NC3CC(C)(C)N(C)C(C)(C)C3)n2)ccc1Br [Compound I-111],490 nM,
CN1C(C)(C)CC(Nc2nc(Nc3ccc(-c4cc5ccccc5s4)c(C(F)(F)F)c3)ncc2F)CC1(C)C [Compound I-114],1880 nM,
Cc1csc(-c2ccc(Nc3ncc(F)c(NC4CC(C)(C)N(C)C(C)(C)C4)n3)cc2C(F)(F)F)c1 [Compound I-116],1230 nM,
CN1C(C)(C)CC(Nc2nc(Nc3cc(C(F)(F)F)c(Br)c(C(F)(F)F)c3)ncc2F)CC1(C)C [Compound I-117],1250 nM,
COc1ccc(Nc2ncc(F)c(NC3CC(C)(C)N(C)C(C)(C)C3)n2)cc1F [Compound I-127],1140 nM,
CCc1cc(Nc2ncc(F)c(NC3CC(C)(C)N(C)C(C)(C)C3)n2)cc(C#N)c1Cl [Compound I-128],876 nM,
COc1ccc(Nc2ncc(F)c(NC3CC(C)(C)N(C)C(C)(C)C3)n2)cc1OC [Compound I-130],1100 nM,
COc1c(C)cc(Nc2ncc(F)c(NC3CC(C)(C)N(C)C(C)(C)C3)n2)cc1C [Compound I-131],629 nM,
CN1C(C)(C)CC(Nc2nc(Nc3ccc(NC(=O)c4ccccc4)cc3)ncc2F)CC1(C)C [Compound I-133],1130 nM,
CN1C(C)(C)CC(Nc2nc(Nc3ccc(OCC(N)=O)cc3)ncc2F)CC1(C)C [Compound I-134],2430 nM,
CC(C)OC(=O)COc1ccc(Nc2ncc(F)c(NC3CC(C)(C)N(C)C(C)(C)C3)n2)cc1 [Compound I-135],4640 nM,
CNC(=O)COc1cccc(Nc2ncc(F)c(NC3CC(C)(C)N(C)C(C)(C)C3)n2)c1 [Compound I-136],1550 nM,
CC(C)OC(=O)Nc1ccc(Nc2ncc(F)c(NC3CC(C)(C)N(C)C(C)(C)C3)n2)cc1 [Compound I-137],1640 nM,
CCNC(=O)Nc1cccc(Nc2ncc(F)c(NC3CC(C)(C)N(C)C(C)(C)C3)n2)c1 [Compound I-138],3150 nM,
CC(C)OC(=O)Nc1cccc(Nc2ncc(F)c(NC3CC(C)(C)N(C)C(C)(C)C3)n2)c1 [Compound I-139],1570 nM,
CN1C(C)(C)CC(Nc2nc(Nc3cccc(-c4cnn(C)c4)c3)ncc2F)CC1(C)C [Compound I-143],1410 nM,

SMILES,IC50 (24 hours),"IC50 (Homo sapiens, T-cell, 24 h)"
CN1C(C)(C)CC(Nc2nc(Nc3ccc(-c4cnn(C)c4)cc3)ncc2F)CC1(C)C [Compound I-144],1060 nM,
COc1cc(Nc2ncc(F)c(NC3CC(C)(C)N(C)C(C)(C)C3)n2)cc(C(F)(F)F)c1 [Compound I-145],897 nM,
CCNC(=O)Nc1ccc(Nc2ncc(F)c(NC3CC(C)(C)N(C)C(C)(C)C3)n2)cc1 [Compound I-149],4360 nM,
CN1C(C)(C)CC(Nc2nc(Nc3ccc(-c4cnn(C)c4)c(F)c3)ncc2F)CC1(C)C [Compound I-150],701 nM,
Cc1cc(Nc2ncc(F)c(NC3CC(C)(C)N(C)C(C)(C)C3)n2)ccc1-c1cnn(C)c1 [Compound I-151],635 nM,
CN1C(C)(C)CC(Nc2nc(Nc3ccc(C#N)c(C(F)(F)F)c3)ncc2F)CC1(C)C [Compound I-152],604 nM,
CN1C(C)(C)CC(Nc2nc(Nc3ccc(-c4cc5ccccc5s4)c(Cl)c3)ncc2F)CC1(C)C [Compound I-156],2890 nM,
CC(=O)Nc1ccc(Nc2ncc(F)c(NC3CC(C)(C)N(C)C(C)(C)C3)n2)cc1C(F)(F)F [Compound I-161],1050 nM,
CN1C(C)(C)CC(Nc2nc(Nc3ccc(Cl)c(C#N)c3)ncc2C(F)(F)F)CC1(C)C [Compound I-169],684 nM,
CN1C(C)(C)CC(Nc2nc(Nc3ccc(F)c(C#N)c3)ncc2C(F)(F)F)CC1(C)C [Compound I-170],2650 nM,
Cc1ccc(Nc2ncc(C(F)(F)F)c(NC3CC(C)(C)N(C)C(C)(C)C3)n2)cc1C#N [Compound I-171],680 nM,
CN1C(C)(C)CC(Nc2nc(Nc3ccc(-n4cccc4)c(C#N)c3)ncc2C(F)(F)F)CC1(C)C [Compound I-172],669 nM,
CN1C(C)(C)CC(Nc2nc(Nc3ccc(N4CCN(S(C)(=O)=O)CC4)c(C#N)c3)ncc2C(F)(F)F)CC1(C)C [Compound I-176],655 nM,
CN1C(C)(C)CC(Nc2nc(Nc3ccc(OC(F)(F)F)c(Br)c3)ncc2F)CC1(C)C [Compound I-177],764 nM,
CN1C(C)(C)CC(Nc2nc(Nc3ccc(F)c(-c4cccnc4)c3)ncc2F)CC1(C)C [Compound I-180],914 nM,
CN1C(C)(C)CC(Nc2nc(Nc3ccc(F)c(-c4cc5ccccc5s4)c3)ncc2F)CC1(C)C [Compound I-181],1320 nM,
CN1C(C)(C)CC(Nc2nc(Nc3ccc(F)c(-c4cnn(C)c4)c3)ncc2F)CC1(C)C [Compound I-182],675 nM,
COc1ccc(Nc2ncc(F)c(NC3CC(C)(C)N(C)C(C)(C)C3)n2)cc1-c1ccoc1 [Compound I-183],901 nM,
COc1ccc(Nc2ncc(F)c(NC3CC(C)(C)N(C)C(C)(C)C3)n2)cc1-c1cnn(C)c1 [Compound I-184],2290 nM,
Cc1ccc(Nc2ncc(F)c(NC3CC(C)(C)N(C)C(C)(C)C3)n2)cc1-c1cc2ccccc2s1 [Compound I-189],1220 nM,
CN1C(C)(C)CC(Nc2nc(Nc3ccc(F)c(-c4ccncc4)c3)ncc2F)CC1(C)C [Compound I-191],700 nM,
CN1C(C)(C)CC(Nc2nc(Nc3ccc(F)c(-c4ccoc4)c3)ncc2F)CC1(C)C [Compound I-192],941 nM,
COc1ccc(Nc2ncc(F)c(NC3CC(C)(C)N(C)C(C)(C)C3)n2)cc1-c1ccncc1 [Compound I-193],653 nM,

SMILES,IC50 (24 hours),"IC50 (Homo sapiens, T-cell, 24 h)"
COc1ccc(Nc2ncc(F)c(NC3CC(C)(C)N(C)C(C)(C)C3)n2)cc1-c1cccnc1 [Compound I-194],804 nM,
COc1ccc(Nc2ncc(F)c(NC3CC(C)(C)N(C)C(C)(C)C3)n2)cc1-c1cc2ccccc2s1 [Compound I-195],1120 nM,
CN1C(C)(C)CC(Nc2nc(Nc3ccc(N4CCN(S(C)(=O)=O)CC4)c(C#N)c3)ncc2C#N)CC1(C)C [Compound I-196],971 nM,
CN1C(C)(C)CC(Nc2nc(Nc3cc(-c4ccncc4)cc(C(F)(F)F)c3)ncc2F)CC1(C)C [Compound I-201],522 nM,
CN1C(C)(C)CC(Nc2nc(Nc3cc(-c4cccnc4)cc(C(F)(F)F)c3)ncc2F)CC1(C)C [Compound I-202],615 nM,
CN1C(C)(C)CC(Nc2nc(Nc3cc(-c4cc5ccccc5s4)cc(C(F)(F)F)c3)ncc2F)CC1(C)C [Compound I-205],965 nM,
CN1C(C)(C)CC(Nc2nc(Nc3ccc(-n4cccc4)c(C#N)c3)ncc2C#N)CC1(C)C [Compound I-206],1030 nM,
CN1C(C)(C)CC(Nc2nc(Nc3ccc(OC(F)(F)F)c(-c4ccncc4)c3)ncc2F)CC1(C)C [Compound I-207],402 nM,
CN1C(C)(C)CC(Nc2nc(Nc3ccc(OC(F)(F)F)c(-c4ccoc4)c3)ncc2F)CC1(C)C [Compound I-209],706 nM,
CN1C(C)(C)CC(Nc2nc(Nc3ccc(OC(F)(F)F)c(-c4cnn(C)c4)c3)ncc2F)CC1(C)C [Compound I-210],1240 nM,
CN1C(C)(C)CC(Nc2nc(Nc3ccc(OC(F)(F)F)c(-c4cc5ccccc5s4)c3)ncc2F)CC1(C)C [Compound I-211],1700 nM,
CC(=O)N1CCN(c2cc(Nc3ncc(F)c(NC4CC(C)(C)N(C)C(C)(C)C4)n3)ccc2C(F)(F)F)CC1 [Compound I-212],445 nM,
COc1ccc(Nc2ncc(F)c(NC3CC(C)(C)N(C(C)=O)C(C)(C)C3)n2)cc1Cl [Compound I-213],19600 nM,
COC(=O)N1CCN(c2cc(Nc3ncc(F)c(NC4CC(C)(C)N(C)C(C)(C)C4)n3)ccc2C(F)(F)F)CC1 [Compound I-214],540 nM,
CC(=O)N1C(C)(C)CC(Nc2nc(Nc3ccc(N4CCN(S(C)(=O)=O)CC4)c(C(F)(F)F)c3)ncc2F)CC1(C)C [Compound I-215],25500 nM,
CC(=O)N1C(C)(C)CC(Nc2nc(Nc3ccc(N4CCN(C)CC4)c(C(F)(F)F)c3)ncc2F)CC1(C)C [Compound I-219],20800 nM,
CCCN1C(C)CN(c2cc(Nc3ncc(F)c(NC4CC(C)(C)N(C)C(C)(C)C4)n3)ccc2Cl)CC1C (centres unmarked) [Compound I-220],1050 nM,
CN1CCC(c2ccc(Nc3ncc(F)c(NC4CC(C)(C)N(C)C(C)(C)C4)n3)cc2)CC1 [Compound I-221],1270 nM,
CC1CC(c2ccc(Nc3ncc(F)c(NC4CC(C)(C)N(C)C(C)(C)C4)n3)cc2)CC(C)O1 (centres unmarked) [Compound I-222],1530 nM,
CC1CN(c2ccc(Nc3ncc(F)c(NC4CC(C)(C)N(C)C(C)(C)C4)n3)cc2C(F)(F)F)CC(C)O1 (centres unmarked) [Compound I-225],755 nM,
COc1ccc(Nc2nccc(NC3CC(C)(C)N(C)C(C)(C)C3)n2)cc1Cl [Compound I-226],1140 nM,
CN1C(C)(C)CC(Nc2ccnc(Nc3cccc(C#N)c3)n2)CC1(C)C [Compound I-227],,806 nM
